# Experimental data reported in US12037345B2, “Heterobicyclic compounds for inhibiting the activity of SHP2” (TAIHO PHARMACEUTICAL CO., LTD., priority 2018, dated 2024).
# Counter-ions that a name gives are not always drawn. Like-named read-outs stand apart in the source and are kept apart here.
# Tests used:
# SHP2 = SHP2 (Homo sapiens (Human), UniProt Q06124); assay: SHP2 Biochemical Assay (DiFMUP conversion, pIRS1-activated)
# Protocol: SHP2 activity was monitored by measuring the conversion of the surrogate substrate 6,8-difluoromethylumbelliferyl phosphate (DiFMUP) to the fluorescent product, 6,8-difluoromethylumbelliferone (DiFMU).
# SHP2 was pre-incubated with test compounds and the activating peptide pIRS1 (H2N-LN(pY)IDLDLV-(PEG)8-LST(pY)ASINFQK-amide) for 30 min, prior to addition of the 6,8-difluoromethylumbelliferyl phosphate (DiFMUP), (Thermo Fisher D6567). Final assay concentrations were 10 pM SHP2, […] pIRS1 peptide, 50 μM DiFMUP, 25 mM Bis-Tris propane, pH 7.0, 150 mM NaCl, 0.05% (v/v) Tween-20, 0.5 mM TCEP and 5% (v/v) DMSO. Rates of reaction were then measured over 30 min by monitoring fluorescence on a BMG Pherastar reader at excitation 360 nm/emission 450 nm. IC50 values were calculated in singlicate from the normalized dose-response plots using four parameter logistic curve fit. The Experiment for each compound was carried out in one time or multiple times, and the IC50 values were shown as a single value (for a compound measured in a single experiment) or an average value (for a compound measured in multiple experiments).
# [1] = test system: pERK (phospho-p44/42 ERK) in HCC827 cells; assay: Cellular pERK Inhibition Assay, Method A (In-Cell Western); format: cell-based; details: Homo sapiens
# Protocol: Cellular pERK Inhibition Assay
# pERK levels were determined using the In-Cell Western assay. HCC827 cells (ATCC, Manassas, USA) were seeded into 384-well plates at a density of 1×10^4 cells/well in RPMI1640 medium supplemented with 10% FBS and incubated 24h. Compounds were diluted first in DMSO and then into serum-free medium, before being added to cells in quadruplicate to give a final concentration of 0.2% DMSO. Plates were incubated at 37° C. for the indicated time in a humidified atmosphere of 5% CO2 in air.
# Following compound treatment, cells were fixed with formalin neutral buffer solution for 20 minutes at room temperature. Plates were washed three times with 0.1% Triton-X in PBS and cells were blocked for 1 hour with Odyssey blocking buffer (LI-COR, #927-40000). After shaking out blocking buffer, cells were incubated with phospho-p44/42 ERK antibody (Cell Signalling Technology, #4370, 1:200) diluted in Odyssey blocking buffer at 4° C. overnight. Plates were washed again and cells were incubated for 1 hour with Goat anti-Rabbit […] (LI-COR, #926-32211, 1:800) diluted in Odyssey blocking buffer. After washing and removing wash solution completely using a centrifuge machine, cells were scanned on the Odyssey (LI-COR), following the manufacturer's instructions. The average signal from blank wells (no cells added) was subtracted from the signals from each sample well. Levels of pERK were then expressed as percent of control, using DMSO treated samples as control. The relative IC50 values were calculated in quadruplicate from the normalized dose-response plots using four parameter logistic curve fit. The Experiment for each compound was carried out in one time or multiple times, and the IC50 values were shown as a single value (for a compound measured in a single experiment) or an average value (for a compound measured in multiple experiments).
# [2] = Table 19, head prints unit as "-M", read-out: pERK (IC50) Method A
# [3] = Table 19, head prints unit as "-M"
SMILES,IC50 (SHP2; [3]) [nM],IC50 (SHP2; Table 20) [nM],other results
"CCn1cc2c(Cl)c(-c3c[nH]c4nc(N5CCC6(CNC6)C5)n(C)c(=O)c34)ccc2n1 (racemic) [Example 196, rac-5-(4-chloro-2-ethyl-2H-indazol-5-yl)-2-{2,6-diazaspiro[3.4]octan-6-yl}-3-methyl-3H,4H,7H-pyrrolo[2,3-d]pyrimidin-4-one]",–,32,–
"CCn1cc2c(Cl)c(-c3c[nH]c4nc(N5CC6CNCC5C6)n(C)c(=O)c34)ccc2n1 (single isomer, unassigned) [Example 193, 5-(4-chloro-2-ethyl-2H-indazol-5-yl)-2-{3,6-diazabicyclo[3.2.1]octan-6-yl}-3-methyl-3H,4H,7H-pyrrolo[2,3-d]pyrimidin-4-one hydrochloride]",–,260,–
"CCn1cc2c(Cl)c(-c3c[nH]c4nc(N5C[C@@H]6CC[C@H]5[C@H]6N)n(C)c(=O)c34)ccc2n1 (stereo in doubt) [Example 133, rac-2-((1S,4S,7S)-7-amino-2-azabicyclo[2.2.1]heptan-2-yl)-5-(4-chloro-2-ethyl-2H-indazol-5-yl)-3-methyl-3,7-dihydro-4H-pyrrolo[2,3-d]pyrimidin-4-one]",–,–,"IC50 [1, 2]: 0.046 µM"
"CCn1cc2c(Cl)c(-c3c[nH]c4nc(N5[C@H]6CC[C@@H]5[C@H](N)C6)n(C)c(=O)c34)ccc2n1 [Example 92, 2-((1R,2R,4S)-2-amino-7-azabicyclo[2.2.1]heptan-7-yl)-5-(4-chloro-2-ethyl-2H-indazol-5-yl)-3-methyl-3,7-dihydro-4H-pyrrolo[2,3-d]pyrimidin-4-one]",–,–,"IC50 [1, 2]: 0.032 µM"
"Cn1nc2ccc(-c3c[nH]c4nc(N5[C@H]6CC[C@@H]5[C@H](N)C6)n(C)c(=O)c34)c(Cl)c2c1Cl [Example 93, 2-((1R,2R,4S)-2-amino-7-azabicyclo[2.2.1]heptan-7-yl)-5-(3,4-dichloro-2-methyl-2H-indazol-5-yl)-3-methyl-3,7-dihydro-4H-pyrrolo[2,3-d]pyrimidin-4-one]",–,–,"IC50 [1, 2]: 0.021 µM"
"Cn1nc2ccc(-c3c[nH]c4nc(N5[C@H]6CC[C@@H]5[C@H](N)C6)n(C)c(=O)c34)c(F)c2c1Cl [Example 96, 2-((1R,2R,4S)-2-amino-7-azabicyclo[2.2.1]heptan-7-yl)-5-(3-chloro-4-fluoro-2-methyl-2H-indazol-5-yl)-3-methyl-3,7-dihydro-4H-pyrrolo[2,3-d]pyrimidin-4-one]",–,–,"IC50 [1, 2]: 0.03 µM"
"Cn1c(N2[C@H]3CC[C@@H]2[C@H](N)C3)nc2[nH]cc(-c3ccc4ncsc4c3Cl)c2c1=O [Example 101, 2-((1R,2R,4S)-2-amino-7-azabicyclo[2.2.1]heptan-7-yl)-5-(7-chlorobenzo[d]thiazol-6-yl)-3-methyl-3,7-dihydro-4H-pyrrolo[2,3-d]pyrimidin-4-one]",–,–,"IC50 [1, 2]: 0.046 µM"
"Cn1cc2c(Cl)c(-c3n[nH]c4nc(N5CC6COCC(C5)N6)n(C)c(=O)c34)ccc2n1 [Example 145, 3-(4-chloro-2-methyl-2H-indazol-5-yl)-5-methyl-6-{3-oxa-7,9-diazabicyclo[3.3.1]nonan-7-yl}-1H,4H,5H-pyrazolo[3,4-d]pyrimidin-4-one]",150,–,–
"Cn1nc2ccc(-c3c[nH]c4nc(N5[C@H]6CC[C@@H]5[C@@H](N)C6)n(C)c(=O)c34)c(Cl)c2c1Cl [Example 166, 2-((1R,2S,4S)-2-amino-7-azabicyclo[2.2.1]heptan-7-yl)-5-(3,4-dichloro-2-methyl-2H-indazol-5-yl)-3-methyl-3,7-dihydro-4H-pyrrolo[2,3-d]pyrimidin-4-one]",–,53,–
"Cn1nc2ccc(-c3c[nH]c4nc(N5[C@H]6CC[C@@H]5[C@H](N)C6)n(C)c(=O)c34)cc2c1Cl [Example 167, 2-((1R,2R,4S)-2-amino-7-azabicyclo[2.2.1]heptan-7-yl)-5-(3-chloro-2-methyl-2H-indazol-5-yl)-3-methyl-3,7-dihydro-4H-pyrrolo[2,3-d]pyrimidin-4-one]",–,13,–
"Cn1nc2c(Cl)cc(-c3c[nH]c4nc(N5[C@H]6CC[C@@H]5[C@@H](N)C6)n(C)c(=O)c34)c(Cl)c2c1Cl [Example 168, 2-((1R,2S,4S)-2-amino-7-azabicyclo[2.2.1]heptan-7-yl)-3-methyl-5-(3,4,7-trichloro-2-methyl-2H-indazol-5-yl)-3,7-dihydro-4H-pyrrolo[2,3-d]pyrimidin-4-one]",–,7,–
"Cn1nc2ccc(-c3n[nH]c4nc(N5C[C@H]6CC[C@@H]5[C@@H]6N)n(C)c(=O)c34)c(Cl)c2c1Cl [Example 171, 6-((1R,4R,7R)-7-amino-2-azabicyclo[2.2.1]heptan-2-yl)-3-(3,4-dichloro-2-methyl-2H-indazol-5-yl)-5-methyl-1,5-dihydro-4H-pyrazolo[3,4-d]pyrimidin-4-one]",–,–,"IC50 ([1]; Table 20, read-out: pERK (IC50, μM) Method A): 0.02 µM"
"CCn1cc2ccc(-c3c[nH]c4nc(N5CCC6(CC5)COC[C@H]6N)n(C)c(=O)c34)cc2n1 [Example 183, 2-[(4S)-4-amino-2-oxa-8-azaspiro[4.5]decan-8-yl]-5-(2-ethyl-2H-indazol-6-yl)-3-methyl-3H,4H,7H-pyrrolo[2,3-d]pyrimidin-4-one hydrochloride]",–,140,–
"Cn1cc2c(Cl)c(-c3c[nH]c4nc(N5[C@@H]6CC[C@H]5C[C@](N)(C(F)F)C6)n(C)c(=O)c34)ccc2n1 [Example 185, 2-[(endo)-3-amino-3-(difluoromethyl)-8-azabicyclo[3.2.1]octan-8-yl]-5-(4-chloro-2-methyl-2H-indazol-5-yl)-3-methyl-3H,4H,7H-pyrrolo[2,3-d]pyrimidin-4-one hydrochloride]",–,180,–
"CCn1cc2cc(-c3c[nH]c4nc(N5CCC6(CC5)COC[C@H]6N)n(C)c(=O)c34)cc(F)c2n1 [Example 186, 2-[(4S)-4-amino-2-oxa-8-azaspiro[4.5]decan-8-yl]-5-(2-ethyl-7-fluoro-2H-indazol-5-yl)-3-methyl-3H,4H,7H-pyrrolo[2,3-d]pyrimidin-4-one hydrochloride]",–,36,–

# More lines, main results first:
IC50 (SHP2; [3]) [nM],SMILES,IC50 (SHP2; Table 20) [nM],other results
4,"CCn1cc2c(Cl)c(-c3c[nH]c4nc(N5C[C@H]6CC[C@@H]5[C@@H]6N)n(C)c(=O)c34)ccc2n1 (stereo in doubt) [Example 155, rel-2-((1R,4R,7R)-7-amino-2-azabicyclo[2.2.1]heptan-2-yl)-5-(4-chloro-2-ethyl-2H-indazol-5-yl)-3-methyl-3,7-dihydro-4H-pyrrolo[2,3-d]pyrimidin-4-one]",–,–
230,"C[C@@H]1CN(c2nc3[nH]cc(-c4ccc5nn(C)cc5c4Cl)c3c(=O)n2C)CCN1 [Example 18, (R)-5-(4-chloro-2-methyl-2H-indazol-5-yl)-3-methyl-2-(3-methylpiperazin-1-yl)-3,7-dihydro-4H-pyrrolo[2,3-d]pyrimidin-4-one]",–,–
350,"Cn1cc2c(Cl)c(-c3c[nH]c4nc(N5CCN[C@H](CO)C5)n(C)c(=O)c34)ccc2n1 [Example 19, (S)-5-(4-chloro-2-methyl-2H-indazol-5-yl)-2-(3-(hydroxymethyl)piperazin-1-yl)-3-methyl-3,7-dihydro-4H-pyrrolo[2,3-d]pyrimidin-4-one]",–,–
760,"Cn1cc2c(Cl)c(-c3c[nH]c4nc(N5CCN[C@H](CCO)C5)n(C)c(=O)c34)ccc2n1 [Example 20, (R)-5-(4-chloro-2-methyl-2H-indazol-5-yl)-2-(3-(2-hydroxyethyl)piperazin-1-yl)-3-methyl-3,7-dihydro-4H-pyrrolo[2,3-d]pyrimidin-4-one]",–,–
78,"Cn1cc2c(Cl)c(-c3c[nH]c4nc(N5CCC6(CCN6)CC5)n(C)c(=O)c34)ccc2n1 [Example 42, 5-(4-chloro-2-methyl-2H-indazol-5-yl)-3-methyl-2-(1,7-diazaspiro[3.5]nonan-7-yl)-3,7-dihydro-4H-pyrrolo[2,3-d]pyrimidin-4-one]",–,–
290,"Cn1cc2c(Cl)c(-c3n[nH]c4nc(N5[C@@H]6CC[C@H]5[C@H](F)[C@@H](N)C6)n(C)c(=O)c34)ccc2n1 [Example 149, 6-[(1S,2R,3S,5R)-3-Amino-2-fluoro-8-azabicyclo[3.2.1]octan-8-yl]-3-(4-chloro-2-methyl-2H-indazol-5-yl)-5-methyl-1H,4H,5H-pyrazolo[3,4-d]pyrimidin-4-one]",–,–
